Measured values reported in a melting point compilation (Tetko et al.; mined from patent text by program, amines drawn as free bases though some values may be those of a salt).

Row | SMILES | melting point [°C]
1 | NS(=O)(=O)c1ccccc1CN1CCCC1 | 110 to 112
2 | COc1ccc2c(c1)C(NC(=NC#N)SC)CCC2 (stereo unspecified) | 131 to 132
3 | CCOc1nc(F)cc2nc(=S)[nH]n12 | 78 to 82
4 | O=c1[nH]c2cc(Sc3cccc4cnccc34)c([N+](=O)[O-])cc2[nH]1 | > 270
5 | CCc1cc2c(s1)-n1c(C)nnc1C(CCC(=O)O)N=C2c1ccc(Cl)cc1 (stereo unspecified) | 210 to 212
6 | CCc1cccc2c(=O)c3c(cnn3C)[nH]c12 | 254
7 | O=C(NCCN1CCC(n2c(=O)[nH]c3ccccc32)CC1)c1ccco1 | 229
8 | O=C(NC(O)C(F)(F)F)c1snc(Cl)c1Cl (stereo unspecified) | 90 to 93
9 | CC(C)c1cccc(C(C)C)c1NC(=O)CN1CCCN(CCCSc2nc3ncccc3o2)CC1 | 73 to 75
10 | CC(C)(C)c1cc(I)c(O)c(C=NO)c1 | 154 to 156
11 | COC(=O)c1ccc(S(=O)(=O)N2CC[C@H](O)C2)n1C | 108 to 109
12 | CC(C)(C)OC(=O)N1CCO[C@@H](c2ccc(C#N)cc2)C1 | 104
13 | CC(C)c1noc([C@]2(C)CC[C@H](NCC(=O)N3C[C@@H](F)C[C@H]3C#N)C2(C)C)n1 | 82 to 85
14 | O=CNNc1ccc(NC(=S)N2CCOCC2)cc1 | 204 to 206
15 | CCCCCCCCCCCCCCCOCCSCCCO | 44 to 47
16 | O=C1c2ccccc2C(=O)N1CCc1cn(C2OCC(O)C(O)C2O)c(=O)[nH]c1=O (stereo unspecified) | 137
17 | Cc1ccc(S(=O)(=O)NC(=O)OCCc2ccc(-n3c(CCC(=O)c4ccccn4)nc4cc(C(F)(F)F)c(Cl)cc43)cc2)cc1 | 234
18 | CS(=O)(=O)n1c(C#N)nc2cc3c(cc21)OC(F)(F)C(F)(F)O3 | 180 to 183
19 | CN1CC[C@@H]2CC(=O)c3cc4c(cc3[C@@H]2C1)OCO4 (relative stereo) | > 250
20 | C=Cc1ccc(NS(C)(=O)=O)cc1 | 97
21 | c1ccc(CNc2nnc(Cc3ccncc3)c3ccccc23)cc1 | 137 to 138

Next, values leading:

Row | melting point [°C] | SMILES
22 | 188 to 191 | CCCCc1nc2cccc(C(=O)O)c2n1Cc1ccc2nc(-c3ccccc3-c3nnn[nH]3)ncc2c1
23 | 288 | NS(=O)(=O)c1cccc(-c2noc(-c3cnc4ccc(-c5ccc(C(F)(F)F)cc5)cn34)n2)c1
24 | 150 to 152 | O=C(O)c1ccc(OCc2ccc(Cl)cc2)cc1OCc1ccccc1
25 | 172 to 173 | Cn1c(-c2ccccc2)c(C=O)c2ccc(Cl)cc2c1=O
26 | 127 to 128 | CC(=O)Nc1ccc(F)c(F)c1
27 | 136 to 137 | O=c1oc(-c2ccccc2)cc(O)c1SCC1CC1
28 | 143 to 146 | O=C(c1ccccc1)c1ccc(NC(=O)C(O)(C(F)(F)F)C(F)(F)F)cc1
29 | 113 to 115 | N#CC1c2ccccc2COc2ccc(Cl)cc21 (stereo unspecified)
30 | 126 | CNC(=O)c1cccc(Br)c1
31 | 143 to 145 | CC(C)(C)OC(=O)NC(Cc1ccc(O)cc1)C(=O)N1CCc2c(sc(N)c2C(=O)c2ccccc2)C1 (stereo unspecified)
32 | 144 to 146 | CC(OC(C)c1ccc(-c2ccc(Cl)cc2)cc1)C(=O)O (stereo unspecified)
33 | 194 to 196 | Clc1nc(Nc2ccccc2)c2ccccc2n1
34 | 126 to 127 | OCc1nn(-c2ccc(Br)cc2)c2c1CCCC2
35 | 119 to 121 | COc1ccc(C(=O)Nc2ccccc2S(C)(=O)=O)cc1OC1CCCC1
36 | 106 to 110 | O=C(O)CCNc1ccccc1CNC(=O)C1Cc2ccccc2N1S(=O)(=O)c1ccc(-c2ccc(F)cc2F)cc1 (stereo unspecified)
37 | 120 to 125 | O=C(CC1CCCCC1=O)c1ccc(O)cc1 (stereo unspecified)
38 | 128 to 129 | O=C(Nc1ccc(-n2nc(C(F)(F)F)cc2Cl)cc1)c1ccncc1F
39 | 77 to 78 | C=C(C(=O)c1ccc(OC)c(OC)c1)c1ccc(F)cc1
40 | 146 to 147 | Cc1nnc(OC[C@H]2CN(c3ccc(C4=CCOCC4)c(F)c3)C(=O)O2)o1
41 | 178 to 180 | CCCCCCCCC(=O)NCc1ccc(C(=O)O)cc1
